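Dose response: 5 concentrations. Exposure: 48 h. Format: 96-well plates. Endpoint: linear interpolation; highest concentration if not reached. Here, GI50 denotes the concentration required for 50% inhibition of growth.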 The source made the active and inactive calls. Cut-off read from the data, not from the text of the source: active = GI50 up to about 1.1 µM and inactive = higher.
Tests used:
Test in all cases: growth of human tumour cells (NCI), 48 h
[1] = test system: LOX IMVI
[2] = test system: CCRF-CEM
[3] = test system: UACC-62
[4] = test system: IGROV-1
[5] = test system: SK-MEL-2
[6] = test system: SW-620
[7] = test system: HCT-116
[8] = test system: MOLT-4
[9] = test system: NCI-H460
[10] = test system: OVCAR-5
[11] = test system: SK-MEL-28
[12] = test system: HCT-15
[13] = test system: OVCAR-3
[14] = test system: SK-OV-3
[15] = test system: SNB-19
[16] = test system: HT-29
[17] = test system: COLO 205
[18] = test system: HOP-62
[19] = test system: HOP-92
[20] = test system: UACC-257
[21] = test system: MDA-N
[22] = test system: OVCAR-8
[23] = test system: HL-60
[24] = test system: NCI/ADR-RES
[25] = test system: NCI-H23
[26] = test system: A549
[27] = test system: Hs-578T
[28] = test system: T47D
[29] = test system: BT-549
[30] = test system: OVCAR-4
[31] = test system: NCI-H522
[32] = test system: RPMI-8226
[33] = test system: SF-539
[34] = test system: K562
[35] = test system: TK-10
[36] = test system: 786-0
[37] = test system: RXF 393
[38] = test system: SK-MEL-5
[39] = test system: SNB-75
[40] = test system: PC-3
[41] = test system: DU-145
[42] = test system: CAKI-1
[43] = test system: Malme-3M
[44] = test system: U-251
[45] = test system: SF-295
[46] = test system: UO-31
[47] = test system: SN12C
[48] = test system: EKVX
[49] = test system: MCF7
[50] = test system: KM12
[51] = test system: A498
[52] = test system: SR
[53] = test system: MDA-MB-435
[54] = test system: MDA-MB-231
[55] = test system: NCI-H226
[56] = test system: ACHN
[57] = test system: SF-268
[58] = test system: M14
[59] = test system: HCC 2998

`Oc1ccc(Cl)cc1Sc1cc(Cl)ccc1O` [FENTICLOR] was tested, and the GI50 [1] was 8.55 µM (inactive), the GI50 [2] was 5.92 µM (inactive) and the GI50 [3] was 5.66 µM (inactive). For the same compound, the GI50 [4] was 15.1 µM (inactive), the GI50 [5] was 10.5 µM (inactive) and the GI50 [6] was 16.7 µM (inactive). For the same compound, the GI50 [7] was 7.11 µM (inactive), the GI50 [8] was 7.53 µM (inactive) and the GI50 [9] was 10.7 µM (inactive). The GI50 [10] was 13.4 µM (inactive), the GI50 [11] was 11.8 µM (inactive) and the GI50 [12] was 8.65 µM. The GI50 [13] was 3.75 µM (inactive), the GI50 [14] was 20.5 µM (inactive) and the GI50 [15] was 12.9 µM (inactive). The GI50 [16] was 18 µM (inactive), the GI50 [17] was 20.7 µM (inactive) and the GI50 [18] was 16.7 µM (inactive). For the same compound, the GI50 [19] was 3.15 µM (inactive), the GI50 [20] was 6.65 µM (inactive) and the GI50 [21] was 7.24 µM (inactive). The GI50 [22] was 15 µM (inactive), the GI50 [23] was 7.87 µM (inactive) and the GI50 [24] was 12.5 µM (inactive). The GI50 [25] was 5.04 µM (inactive), the GI50 [26] was 26.8 µM (inactive) and the GI50 [27] was 4.98 µM (inactive). The GI50 [28] was 5.85 µM (inactive), the GI50 [29] was 12.9 µM (inactive) and the GI50 [30] was 10 µM (inactive). For the same compound, the GI50 [31] was 3.1 µM (inactive), the GI50 [32] was 3.32 µM (inactive) and the GI50 [33] was 17.7 µM (inactive). The GI50 [34] was 8.34 µM (inactive), the GI50 [35] was 17.1 µM (inactive) and the GI50 [36] was 18.1 µM (inactive). The GI50 [37] was 14.2 µM (inactive), the GI50 [38] was 3.83 µM (inactive) and the GI50 [39] was 16.2 µM (inactive). The GI50 [40] was 15.3 µM (inactive), the GI50 [41] was 14.2 µM (inactive) and the GI50 [42] was 17.9 µM (inactive). For the same compound, the GI50 [43] was 6.67 µM (inactive), the GI50 [44] was 8.53 µM (inactive) and the GI50 [45] was 13.5 µM (inactive). For the same compound, the GI50 [46] was 6.78 µM (inactive), the GI50 [47] was 10.5 µM (inactive) and the GI50 [48] was 15.5 µM (inactive). The GI50 [49] was 17.3 µM (inactive), the GI50 [50] was 17.5 µM (inactive) and the GI50 [51] was 11.2 µM (inactive). For the same compound, the GI50 [52] was 17.1 µM (inactive), the GI50 [53] was 10.9 µM (inactive) and the GI50 [54] was 15 µM (inactive). The GI50 [55] was 20.5 µM (inactive), the GI50 [56] was 8.65 µM (inactive) and the GI50 [57] was 10.3 µM (inactive). For the same compound, the GI50 [58] was 12.9 µM (inactive).
In the case of `CCOC(=O)c1nc2cc(C(F)(F)F)ccc2nc1Nc1ccc(OC)cc1`, the GI50 [1] is reported as 41.5 µM (inactive), the GI50 [3] is reported as > 100 µM (inactive) and the GI50 [4] is reported as > 100 µM (inactive). For the same compound, the GI50 [5] was > 100 µM (inactive), the GI50 [6] was > 100 µM (inactive) and the GI50 [59] was > 100 µM (inactive). For the same compound, the GI50 [7] was 46.1 µM (inactive), the GI50 [8] was > 100 µM (inactive) and the GI50 [10] was > 100 µM (inactive). The GI50 [11] was > 100 µM (inactive), the GI50 [12] was greater than 100 µM and the GI50 [13] was > 100 µM (inactive). For the same compound, the GI50 [15] was 54.3 µM (inactive), the GI50 [16] was > 100 µM (inactive) and the GI50 [17] was 47.4 µM (inactive). For the same compound, the GI50 [18] was 42.5 µM (inactive), the GI50 [19] was 36.6 µM (inactive) and the GI50 [20] was > 100 µM (inactive). For the same compound, the GI50 [21] was > 100 µM (inactive), the GI50 [22] was > 100 µM (inactive) and the GI50 [23] was > 100 µM (inactive). For the same compound, the GI50 [24] was > 100 µM (inactive), the GI50 [25] was > 100 µM (inactive) and the GI50 [26] was > 100 µM (inactive). The GI50 [27] was 54.1 µM (inactive), the GI50 [28] was 95.1 µM (inactive) and the GI50 [29] was > 100 µM (inactive). The GI50 [31] was > 100 µM (inactive), the GI50 [32] was > 100 µM (inactive) and the GI50 [33] was > 100 µM (inactive). For the same compound, the GI50 [35] was > 100 µM (inactive), the GI50 [36] was 47.4 µM (inactive) and the GI50 [37] was 56.1 µM (inactive). For the same compound, the GI50 [38] was > 100 µM (inactive), the GI50 [39] was 55.6 µM (inactive) and the GI50 [40] was > 100 µM (inactive). For the same compound, the GI50 [41] was > 100 µM (inactive), the GI50 [42] was > 100 µM (inactive) and the GI50 [45] was 81.3 µM (inactive). The GI50 [46] was > 100 µM (inactive), the GI50 [47] was > 100 µM (inactive) and the GI50 [48] was > 100 µM (inactive). The GI50 [49] was > 100 µM (inactive), the GI50 [50] was > 100 µM (inactive) and the GI50 [51] was > 100 µM (inactive). For the same compound, the GI50 [52] was > 100 µM (inactive), the GI50 [53] was > 100 µM (inactive) and the GI50 [54] was 61.7 µM (inactive). The GI50 [55] was > 100 µM (inactive), the GI50 [56] was 86.9 µM (inactive) and the GI50 [57] was > 100 µM (inactive). For the same compound, the GI50 [58] was > 100 µM (inactive).
